Laboratory results taken from the NIST ThermoML archive (doi:10.1007/s10765-010-0885-7).

Conditions: Gas, Spherical cavity resonance method

C=C(F)C(F)(F)F [2,3,3,3-tetrafluoro-1-propene]
Conditions | speed of sound [m/s]
278.15 K, 25.44 kPa | 148.09
278.15 K, 50.62 kPa | 147.25
278.15 K, 75.68 kPa | 146.39
278.15 K, 101 kPa | 145.51
278.15 K, 201.3 kPa | 141.89
278.15 K, 300.48 kPa | 138.02
293.15 K, 25.29 kPa | 151.93
293.15 K, 50.99 kPa | 151.19
293.15 K, 75.57 kPa | 150.47
293.15 K, 101.23 kPa | 149.72
293.15 K, 201.08 kPa | 146.67
293.15 K, 292.42 kPa | 143.72
293.15 K, 401.24 kPa | 139.99
308.15 K, 25.26 kPa | 155.68
308.15 K, 50.39 kPa | 155.05
308.15 K, 75.5 kPa | 154.42
308.15 K, 100.64 kPa | 153.79
308.15 K, 200.87 kPa | 151.18
308.15 K, 300.85 kPa | 148.47
308.15 K, 398.92 kPa | 145.68
323.15 K, 25.34 kPa | 159.31
323.15 K, 50.23 kPa | 158.76
323.15 K, 75.47 kPa | 158.2
323.15 K, 100.59 kPa | 157.64
323.15 K, 200.87 kPa | 155.39
323.15 K, 300.93 kPa | 153.07
323.15 K, 401.34 kPa | 150.66
338.15 K, 25.37 kPa | 162.84
338.15 K, 50.45 kPa | 162.36
338.15 K, 75.5 kPa | 161.87
338.15 K, 100.77 kPa | 161.37
338.15 K, 200.63 kPa | 159.42
338.15 K, 301.18 kPa | 157.41
338.15 K, 407.01 kPa | 155.23
353.15 K, 25.67 kPa | 166.32
353.15 K, 50.67 kPa | 165.86
353.15 K, 75.38 kPa | 165.44
353.15 K, 100.55 kPa | 165.01
353.15 K, 200.64 kPa | 163.29
353.15 K, 299.53 kPa | 161.57
353.15 K, 401.3 kPa | 159.76
